According to patent publication US20230172206A1 (BASF SE, priority 2020, published 2023):

Test system: Phakopsora pachyrhizi (F129L)
Assay: Protective control of soybean rust on soybeans (PHAKPA P2)
Assay type: in vivo
Settings: protective P2, 4 ppm, soybean rust F129L isolate

SMILES | % PHAKPA (F129L) Disease level P2 at 4 ppm
CNC(=O)/C(=N/OC)c1cccc(C)c1CO/N=C(\CC(C)C)c1cccc(C(F)(F)F)c1 [compound 235] | 100%
CO/N=C(/C(=O)OC)c1cccc(C)c1CO/N=C(\C)c1ccccc1OC(F)(F)F [compound 236] | 97%
CNC(=O)/C(=N/OC)c1cccc(C)c1CO/N=C(\C)c1cc(C(F)(F)F)cc(F)c1NC [compound 238] | 100%
CO/N=C(/C(=O)OC)c1cccc(C)c1CO/N=C(\C)c1cc(Br)cc(F)c1F [compound 240] | 70%
CNC(=O)/C(=N/OC)c1cccc(C)c1CO/N=C(\C)c1cc(Br)cc(F)c1F [compound 241] | 3%
C#Cc1cc(F)c(F)c(/C(C)=N/OCc2c(C)cccc2/C(=N\OC)C(=O)OC)c1 [compound 242] | 87%
C#Cc1cc(F)c(F)c(/C(C)=N/OCc2c(C)cccc2/C(=N\OC)C(=O)NC)c1 [compound 243] | 4%
CO/C=C(/C(=O)OC)c1cccc(C)c1CO/N=C(\C)c1ccccc1C(F)(F)F [compound 244] | 14%
CNC(=O)/C(=N/OC)c1cccc(C)c1CO/N=C(\C)c1cc(Cl)ccc1C(F)(F)F [compound 245] | 28%
CO/N=C(/C(=O)OC)c1cccc(C)c1CO/N=C(\C)c1cc(Cl)c(F)c(Cl)c1 [compound 246] | 40%
CNC(=O)/C(=N/OC)c1cccc(C)c1CO/N=C(\C)c1cc(Cl)c(F)c(Cl)c1 [compound 247] | 16%
CNC(=O)/C(=N/OC)c1cccc(C)c1CO/N=C(\C)c1cc(F)ccc1Br [compound 248] | 33%
CNC(=O)/C(=N/OC)c1cccc(C)c1CO/N=C(\C)c1ccc(OC(F)(F)F)cc1Cl [compound 271] | 5%
CNC(=O)/C(=N/OC)c1cccc(C)c1CO/N=C(\C)c1cc(C(F)(F)F)ccc1C(F)(F)F [compound 272] | 60%
CNC(=O)/C(=N/OC)c1cccc(C)c1CO/N=C(\C)c1cc(C(F)(F)F)ccc1C [compound 273] | 60%
CNC(=O)/C(=N/OC)c1cccc(C)c1CO/N=C(\C)c1ccccc1OCOC [compound 314] | 100%
CNC(=O)/C(=N/OC)c1cccc(C)c1CO/N=C(\C)c1ccccc1OC(C)C [compound 315] | 100%
CNC(=O)/C(=N/OC)c1cccc(C)c1CO/N=C(\C)c1ccccc1Oc1ccccc1 [compound 321] | 100%

Same assay, conditions: protective P2, 16 ppm, soybean rust F129L isolate

SMILES | % PHAKPA (F129L) Disease level P2 at 16 ppm
CNC(=O)/C(=N/OC)c1cccc(C)c1CO/N=C(\CC(C)C)c1cccc(C(F)(F)F)c1 [compound 235] | 73%
CO/N=C(/C(=O)OC)c1cccc(C)c1CO/N=C(\C)c1ccccc1OC(F)(F)F [compound 236] | 77%
CNC(=O)/C(=N/OC)c1cccc(C)c1CO/N=C(\C)c1cc(C(F)(F)F)cc(F)c1NC [compound 238] | 53%
CO/N=C(/C(=O)OC)c1cccc(C)c1CO/N=C(\C)c1cc(Br)cc(F)c1F [compound 240] | 8%
CNC(=O)/C(=N/OC)c1cccc(C)c1CO/N=C(\C)c1cc(Br)cc(F)c1F [compound 241] | 0%
C#Cc1cc(F)c(F)c(/C(C)=N/OCc2c(C)cccc2/C(=N\OC)C(=O)OC)c1 [compound 242] | 10%
C#Cc1cc(F)c(F)c(/C(C)=N/OCc2c(C)cccc2/C(=N\OC)C(=O)NC)c1 [compound 243] | 0%
CO/C=C(/C(=O)OC)c1cccc(C)c1CO/N=C(\C)c1ccccc1C(F)(F)F [compound 244] | 0%
CNC(=O)/C(=N/OC)c1cccc(C)c1CO/N=C(\C)c1cc(Cl)ccc1C(F)(F)F [compound 245] | 8%
CO/N=C(/C(=O)OC)c1cccc(C)c1CO/N=C(\C)c1cc(Cl)c(F)c(Cl)c1 [compound 246] | 15%
CNC(=O)/C(=N/OC)c1cccc(C)c1CO/N=C(\C)c1cc(Cl)c(F)c(Cl)c1 [compound 247] | 2%
CNC(=O)/C(=N/OC)c1cccc(C)c1CO/N=C(\C)c1cc(F)ccc1Br [compound 248] | 2%
CNC(=O)/C(=N/OC)c1cccc(C)c1CO/N=C(\C)c1ccc(OC(F)(F)F)cc1Cl [compound 271] | 1%
CNC(=O)/C(=N/OC)c1cccc(C)c1CO/N=C(\C)c1cc(C(F)(F)F)ccc1C(F)(F)F [compound 272] | 8%
CNC(=O)/C(=N/OC)c1cccc(C)c1CO/N=C(\C)c1cc(C(F)(F)F)ccc1C [compound 273] | 3%
CNC(=O)/C(=N/OC)c1cccc(C)c1CO/N=C(\C)c1ccccc1OCOC [compound 314] | 40%
CNC(=O)/C(=N/OC)c1cccc(C)c1CO/N=C(\C)c1ccccc1OC(C)C [compound 315] | 60%
CNC(=O)/C(=N/OC)c1cccc(C)c1CO/N=C(\C)c1ccccc1Oc1ccccc1 [compound 321] | 40%

Same assay, conditions: protective, inoculation 2 days after spraying, 16 ppm, % diseased leaf area

SMILES | PHAKPA (F129L) Disease level (%) P2 at 16 ppm
CO/C=C(/C(=O)OC)c1cccc(C)c1CO/N=C(\C)c1ccccc1C(F)(F)F [compound 244] | 0%

Test system: Phakopsora pachyrhizi (F129L)
Assay: Protective control of soybean rust on soybeans (PHAKPA P6)
Assay type: in vivo
Settings: protective P6, 4 ppm, soybean rust F129L isolate

SMILES | % PHAKPA (F129L) Disease level P6 at 4 ppm
CNC(=O)/C(=N/OC)c1cccc(C)c1CO/N=C(\CC(C)C)c1cccc(C(F)(F)F)c1 [compound 235] | 87%
CO/N=C(/C(=O)OC)c1cccc(C)c1CO/N=C(\C)c1ccccc1OC(F)(F)F [compound 236] | 97%
CNC(=O)/C(=N/OC)c1cccc(C)c1CO/N=C(\C)c1cc(C(F)(F)F)cc(F)c1NC [compound 238] | 100%
CO/N=C(/C(=O)OC)c1cccc(C)c1CO/N=C(\C)c1cc(Br)cc(F)c1F [compound 240] | 73%
CNC(=O)/C(=N/OC)c1cccc(C)c1CO/N=C(\C)c1cc(Br)cc(F)c1F [compound 241] | 33%
C#Cc1cc(F)c(F)c(/C(C)=N/OCc2c(C)cccc2/C(=N\OC)C(=O)OC)c1 [compound 242] | 87%
C#Cc1cc(F)c(F)c(/C(C)=N/OCc2c(C)cccc2/C(=N\OC)C(=O)NC)c1 [compound 243] | 37%
CO/C=C(/C(=O)OC)c1cccc(C)c1CO/N=C(\C)c1ccccc1C(F)(F)F [compound 244] | 15%
CNC(=O)/C(=N/OC)c1cccc(C)c1CO/N=C(\C)c1cc(Cl)ccc1C(F)(F)F [compound 245] | 13%
CO/N=C(/C(=O)OC)c1cccc(C)c1CO/N=C(\C)c1cc(Cl)c(F)c(Cl)c1 [compound 246] | 77%
CNC(=O)/C(=N/OC)c1cccc(C)c1CO/N=C(\C)c1cc(Cl)c(F)c(Cl)c1 [compound 247] | 33%
CNC(=O)/C(=N/OC)c1cccc(C)c1CO/N=C(\C)c1cc(F)ccc1Br [compound 248] | 30%

Same assay, conditions: protective P6, 16 ppm, soybean rust F129L isolate

SMILES | % PHAKPA (F129L) Disease level P6 at 16 ppm
CNC(=O)/C(=N/OC)c1cccc(C)c1CO/N=C(\CC(C)C)c1cccc(C(F)(F)F)c1 [compound 235] | 77%
CO/N=C(/C(=O)OC)c1cccc(C)c1CO/N=C(\C)c1ccccc1OC(F)(F)F [compound 236] | 100%
CNC(=O)/C(=N/OC)c1cccc(C)c1CO/N=C(\C)c1cc(C(F)(F)F)cc(F)c1NC [compound 238] | 77%
CO/N=C(/C(=O)OC)c1cccc(C)c1CO/N=C(\C)c1cc(Br)cc(F)c1F [compound 240] | 3%
CNC(=O)/C(=N/OC)c1cccc(C)c1CO/N=C(\C)c1cc(Br)cc(F)c1F [compound 241] | 12%
C#Cc1cc(F)c(F)c(/C(C)=N/OCc2c(C)cccc2/C(=N\OC)C(=O)OC)c1 [compound 242] | 20%
C#Cc1cc(F)c(F)c(/C(C)=N/OCc2c(C)cccc2/C(=N\OC)C(=O)NC)c1 [compound 243] | 1%
CO/C=C(/C(=O)OC)c1cccc(C)c1CO/N=C(\C)c1ccccc1C(F)(F)F [compound 244] | 2%
CNC(=O)/C(=N/OC)c1cccc(C)c1CO/N=C(\C)c1cc(Cl)ccc1C(F)(F)F [compound 245] | 2%
CO/N=C(/C(=O)OC)c1cccc(C)c1CO/N=C(\C)c1cc(Cl)c(F)c(Cl)c1 [compound 246] | 7%
CNC(=O)/C(=N/OC)c1cccc(C)c1CO/N=C(\C)c1cc(Cl)c(F)c(Cl)c1 [compound 247] | 8%
CNC(=O)/C(=N/OC)c1cccc(C)c1CO/N=C(\C)c1cc(F)ccc1Br [compound 248] | 2%

Same assay, conditions: protective, inoculation six days after spraying, 16 ppm, % diseased leaf area

SMILES | PHAKPA (F129L) Disease level (%) P6 at 16 ppm
CO/C=C(/C(=O)OC)c1cccc(C)c1CO/N=C(\C)c1ccccc1C(F)(F)F [compound 244] | 2%
